{"source": "PubChem BioAssay AID1918941", "about": "(Molecular Pharmacology Branch, DTP, NCI, 2023)", "test_system": "SW 1271 complex spheroids, viability", "experiment": "Anticancer human tumor SW 1271 cell line growth inhibition [LSD1];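 on all read-outs here: spheroids exposed to agents for 7 days before luminescence read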;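 on viability, T/C: 100% = DMSO vehicle control viability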", "settings": "for IC50: curve of first compound; for viability, T/C: stronger effect = lower value", "summary_of_the_method": "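Drug combinations with the LSD1 inhibitor iadademstat tested on tumor cells co-cultured as spheroids with endothelial cells and mesenchymal stem cells. Concentrations descended in half-log increments from clinical Cmax or 10 microM.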"}
{"compound": "Nc1ncn(C2CC(O)C(CO)O2)c(=O)n1", "note": "(stereo not given) + NC1CCC(NC2CC2c2ccccc2)CC1", "values": [{"measurement": "IC50", "setting": "second compound 0.1 µM", "result": "> 1000", "unit": "nM"}, {"measurement": "IC50", "setting": "second compound 0.316 µM", "result": "> 1000", "unit": "nM"}, {"measurement": "IC50", "setting": "second compound 1 µM", "result": "> 1000", "unit": "nM"}, {"measurement": "IC50", "setting": "second compound 3.16 µM", "result": "> 1000", "unit": "nM"}, {"measurement": "IC50", "setting": "second compound 10 µM", "result": "> 1000", "unit": "nM"}, {"measurement": "viability, T/C", "setting": "second compound 0.1 µM, first compound 0.00316 µM", "result": 83.6, "unit": "%"}, {"measurement": "viability, T/C", "setting": "second compound 0.1 µM, first compound 0.01 µM", "result": 95.2, "unit": "%"}, {"measurement": "viability, T/C", "setting": "second compound 0.1 µM, first compound 0.0316 µM", "result": 90, "unit": "%"}, {"measurement": "viability, T/C", "setting": "second compound 0.1 µM, first compound 0.1 µM", "result": 74.5, "unit": "%"}, {"measurement": "viability, T/C", "setting": "second compound 0.1 µM, first compound 0.316 µM", "result": 86.5, "unit": "%"}, {"measurement": "viability, T/C", "setting": "second compound 0.1 µM, first compound 1 µM", "result": 81.3, "unit": "%"}, {"measurement": "viability, T/C", "setting": "second compound 0.316 µM, first compound 0.00316 µM", "result": 91.3, "unit": "%"}, {"measurement": "viability, T/C", "setting": "second compound 0.316 µM, first compound 0.01 µM", "result": 82.6, "unit": "%"}, {"measurement": "viability, T/C", "setting": "second compound 0.316 µM, first compound 0.0316 µM", "result": 92.8, "unit": "%"}, {"measurement": "viability, T/C", "setting": "second compound 0.316 µM, first compound 0.1 µM", "result": 81.3, "unit": "%"}, {"measurement": "viability, T/C", "setting": "second compound 0.316 µM, first compound 0.316 µM", "result": 66.6, "unit": "%"}, {"measurement": "viability, T/C", "setting": "second compound 0.316 µM, first compound 1 µM", "result": 76.7, "unit": "%"}, {"measurement": "viability, T/C", "setting": "second compound 1 µM, first compound 0.00316 µM", "result": 85.8, "unit": "%"}, {"measurement": "viability, T/C", "setting": "second compound 1 µM, first compound 0.01 µM", "result": 81.2, "unit": "%"}, {"measurement": "viability, T/C", "setting": "second compound 1 µM, first compound 0.0316 µM", "result": 75.9, "unit": "%"}, {"measurement": "viability, T/C", "setting": "second compound 1 µM, first compound 0.1 µM", "result": 76.7, "unit": "%"}, {"measurement": "viability, T/C", "setting": "second compound 1 µM, first compound 0.316 µM", "result": 66.2, "unit": "%"}, {"measurement": "viability, T/C", "setting": "second compound 1 µM, first compound 1 µM", "result": 72.4, "unit": "%"}, {"measurement": "viability, T/C", "setting": "second compound 3.16 µM, first compound 0.00316 µM", "result": 82.3, "unit": "%"}, {"measurement": "viability, T/C", "setting": "second compound 3.16 µM, first compound 0.01 µM", "result": 93.9, "unit": "%"}, {"measurement": "viability, T/C", "setting": "second compound 3.16 µM, first compound 0.0316 µM", "result": 74.1, "unit": "%"}, {"measurement": "viability, T/C", "setting": "second compound 3.16 µM, first compound 0.1 µM", "result": 80.6, "unit": "%"}, {"measurement": "viability, T/C", "setting": "second compound 3.16 µM, first compound 0.316 µM", "result": 66.5, "unit": "%"}, {"measurement": "viability, T/C", "setting": "second compound 3.16 µM, first compound 1 µM", "result": 77.2, "unit": "%"}, {"measurement": "viability, T/C", "setting": "second compound 10 µM, first compound 0.00316 µM", "result": 95.7, "unit": "%"}, {"measurement": "viability, T/C", "setting": "second compound 10 µM, first compound 0.01 µM", "result": 89.9, "unit": "%"}, {"measurement": "viability, T/C", "setting": "second compound 10 µM, first compound 0.0316 µM", "result": 84.8, "unit": "%"}, {"measurement": "viability, T/C", "setting": "second compound 10 µM, first compound 0.1 µM", "result": 81.8, "unit": "%"}, {"measurement": "viability, T/C", "setting": "second compound 10 µM, first compound 0.316 µM", "result": 81.3, "unit": "%"}, {"measurement": "viability, T/C", "setting": "second compound 10 µM, first compound 1 µM", "result": 91.1, "unit": "%"}]}
{"compound": "Nc1ccccc1NC(=O)c1ccc(CNC(=O)OCc2cccnc2)cc1", "note": "+ NC1CCC(NC2CC2c2ccccc2)CC1", "values": [{"measurement": "IC50", "setting": "second compound 0.1 µM", "result": 158, "unit": "nM"}, {"measurement": "IC50", "setting": "second compound 0.316 µM", "result": 150, "unit": "nM"}, {"measurement": "IC50", "setting": "second compound 1 µM", "result": 153, "unit": "nM"}, {"measurement": "IC50", "setting": "second compound 3.16 µM", "result": 152, "unit": "nM"}, {"measurement": "IC50", "setting": "second compound 10 µM", "result": 147, "unit": "nM"}, {"measurement": "viability, T/C", "setting": "second compound 0.1 µM, first compound 0.00949 µM", "result": 89.1, "unit": "%"}, {"measurement": "viability, T/C", "setting": "second compound 0.1 µM, first compound 0.03 µM", "result": 78.6, "unit": "%"}, {"measurement": "viability, T/C", "setting": "second compound 0.1 µM, first compound 0.0949 µM", "result": 64.7, "unit": "%"}, {"measurement": "viability, T/C", "setting": "second compound 0.1 µM, first compound 0.3 µM", "result": 33.4, "unit": "%"}, {"measurement": "viability, T/C", "setting": "second compound 0.1 µM, first compound 0.949 µM", "result": 10.5, "unit": "%"}, {"measurement": "viability, T/C", "setting": "second compound 0.1 µM, first compound 3 µM", "result": 5.83, "unit": "%"}, {"measurement": "viability, T/C", "setting": "second compound 0.316 µM, first compound 0.00949 µM", "result": 93.6, "unit": "%"}, {"measurement": "viability, T/C", "setting": "second compound 0.316 µM, first compound 0.03 µM", "result": 69.4, "unit": "%"}, {"measurement": "viability, T/C", "setting": "second compound 0.316 µM, first compound 0.0949 µM", "result": 68, "unit": "%"}, {"measurement": "viability, T/C", "setting": "second compound 0.316 µM, first compound 0.3 µM", "result": 31.2, "unit": "%"}, {"measurement": "viability, T/C", "setting": "second compound 0.316 µM, first compound 0.949 µM", "result": 8.46, "unit": "%"}, {"measurement": "viability, T/C", "setting": "second compound 0.316 µM, first compound 3 µM", "result": 5.39, "unit": "%"}, {"measurement": "viability, T/C", "setting": "second compound 1 µM, first compound 0.00949 µM", "result": 101, "unit": "%"}, {"measurement": "viability, T/C", "setting": "second compound 1 µM, first compound 0.03 µM", "result": 73.5, "unit": "%"}, {"measurement": "viability, T/C", "setting": "second compound 1 µM, first compound 0.0949 µM", "result": 67.8, "unit": "%"}, {"measurement": "viability, T/C", "setting": "second compound 1 µM, first compound 0.3 µM", "result": 35.9, "unit": "%"}, {"measurement": "viability, T/C", "setting": "second compound 1 µM, first compound 0.949 µM", "result": 7.27, "unit": "%"}, {"measurement": "viability, T/C", "setting": "second compound 1 µM, first compound 3 µM", "result": 8.95, "unit": "%"}, {"measurement": "viability, T/C", "setting": "second compound 3.16 µM, first compound 0.00949 µM", "result": 95.5, "unit": "%"}, {"measurement": "viability, T/C", "setting": "second compound 3.16 µM, first compound 0.03 µM", "result": 85.1, "unit": "%"}, {"measurement": "viability, T/C", "setting": "second compound 3.16 µM, first compound 0.0949 µM", "result": 62.3, "unit": "%"}, {"measurement": "viability, T/C", "setting": "second compound 3.16 µM, first compound 0.3 µM", "result": 32.9, "unit": "%"}, {"measurement": "viability, T/C", "setting": "second compound 3.16 µM, first compound 0.949 µM", "result": 10.5, "unit": "%"}, {"measurement": "viability, T/C", "setting": "second compound 3.16 µM, first compound 3 µM", "result": 4.3, "unit": "%"}, {"measurement": "viability, T/C", "setting": "second compound 10 µM, first compound 0.00949 µM", "result": 95.8, "unit": "%"}, {"measurement": "viability, T/C", "setting": "second compound 10 µM, first compound 0.03 µM", "result": 92.6, "unit": "%"}, {"measurement": "viability, T/C", "setting": "second compound 10 µM, first compound 0.0949 µM", "result": 61.6, "unit": "%"}, {"measurement": "viability, T/C", "setting": "second compound 10 µM, first compound 0.3 µM", "result": 29.2, "unit": "%"}, {"measurement": "viability, T/C", "setting": "second compound 10 µM, first compound 0.949 µM", "result": 11.2, "unit": "%"}, {"measurement": "viability, T/C", "setting": "second compound 10 µM, first compound 3 µM", "result": 7.03, "unit": "%"}]}
